Columns and labels:
[1] = Investigation of solubilities in PBS by observation of precipitates; type: physicochemical; conditions: conjugate solutions in PBS obtained in examples 10b and 10c, on storage
Procedure: Conjugation with IgG antibody: To a solution of 1 mg antibody (IgG from bovine serum; Sigma, >95%, salt free, powder) in […] of phosphate-buffered saline (PBS, pH 7.4) is given […] (32 μL) of a solution of 0.5 mg of N-hydroxysuccinimidyl ester of example 9 in 0.1 mL water. The mixture is shaken at 25° C. for 24 h in the dark. Purification is achieved by filtration via a NAP10 column (Pharmacia) using PBS as eluent. As control conjugate, pyropheophorbide a —NHS-ester is used for conjugation with IgG giving IgG-pyropheo conjugate.
Conjugation with bovine serum albumine (BSA): To a solution of 1 mg BSA (Sigma, fraction V, >98%, powder) in […] of phosphate-buffered saline (PBS, pH 7.4) is given […] (70 μL) of a solution of 0.5 mg of N-hydroxysuccinimidyl ester of example 9 in 0.1 mL water. The mixture is shaken at 25° C. for 24 h in the dark. Purification is achieved by filtration via a NAP 10 column (Pharmacia) using PBS as eluent.
Investigation of solubilities in PBS by observation of precipitates from the solutions obtained in examples 10b and 10c: […]

[2] = Fluorescence quantum yield of dendron dye in comparison to precursor dye; type: physicochemical
Excerpt: Fluorescence quantum yield of title compound of example 4a in comparison to precursor dye dendron bis-1,1′-(4-sulfobutyl)indotricarbocyanine-5,5′-dicarboxylic acid, sodium salt

Row | Fluorescence quantum yield ([2]; MeOH) | Fluorescence quantum yield ([2]; PBS) | Molecule | Solubility in PBS by observation of precipitates [1]
1 |  |  | BSA-pyropheo: control conjugate: pyropheophorbide a NHS-ester conjugated with BSA | immediate precipates
2 | 0.14 | 0.07 | CC1(C)C(=CC=CC=CC=CC2=[N+](CCCCS(=O)(=O)[O-])c3ccc(C(=O)O)cc3C2(C)C)N(CCCCS(=O)(=O)[O-])c2ccc(C(=O)O)cc21.[Na+] [Precursor dye, bis-1,1′-(4-sulfobutyl)indotricarbocyanine-5,5′-dicarboxylic acid, sodium salt] | 

Source: patent US20110065896A1, “POLYETHER POLYOL DENDRON CONJUGATES WITH EFFECTOR MOLECULES FOR BIOLOGICAL TARGETING” (MIVENION GMBH, priority 2008, published 2011)
